Measurements reported in patent US20120196828A1, “SENSITIZATION OF CANCER CELLS TO TREATMENT” (priority 2011, published 2012).
Several values for one entry are separate records, joined by “and”; a condition that tells them apart may be missing. Identical values can stand only once.

Experiments:
anti-thrombin III = anti-thrombin III (Homo sapiens, UniProt P01008); details: cited from earlier work
[1] = test system: BxPC-3 Human Pancreas Tumor Xenograft; assay: BxPC-3 human pancreas tumor xenograft model: tumor weight and tumor growth inhibition; assay type: in vivo, mouse; details: for Day 26 Tumor Weight: mean ± Std Err, treatment administered until Day 26
Procedure: Compounds tested in the experiment were as follows. […] A concentration of 4.8 mg/ml was formulated to deliver a 24 mg/kg dose at a 5 ml/kg dose volume when administered subcutaneously. […] Nab-paclitaxel was manufactured by Abraxis BioScience LLC (Bridgewater, N.J.) and diluted in a 0.9% NaCl solution to a concentration of 1.5 mg/ml to deliver 15 mg/kg, in a 10 ml/kg dose volume. All standard agent preparations were made fresh prior to their administration.
BxPC-3 cells were obtained and prepared as follows. The BxPC-3 pancreas tumor cell line was received from American Type Culture Collection (ATCC, Manassas, Va.). Cultures were maintained in RPMI 1640 medium (Hyclone, Logan, Utah) supplemented with 5% fetal bovine serum. The cells were housed in a 5% CO2 atmosphere. The cultures were expanded in tissue culture flasks at a 1:3 split ratio until a sufficient amount of cells were harvested.
(§1) All experiments were conducted on female athymic nude mice (Hsd:Athymic Nude-Foxn1nu) supplied by Harlan (Indianapolis, Ind.). Mice were received at four weeks of age, 12-15 grams in weight, and were acclimated for seven days prior to handling. The mice were housed in microisolator cages (Lab Products, Seaford, Del.) and maintained under specific pathogen-free conditions. All procedures were carried out under appropriate institutional guidelines for animal care.
BxPC-3 Human Pancreas Tumor Xenograft Model: Female athymic nude mice per treatment condition were inoculated subcutaneously in the right flank with 0.1 ml of a 50% RPMI 1640/50% Matrigel™ (BD Biosciences, Bedford, Mass.) mixture containing a suspension of BxPC-3 tumor cells (approximately 5×10^6 cells/mouse).
(§2) Seven days following inoculation, tumors were measured using calipers and tumor weight was calculated using the animal study management software, Study Director V.1.7.54 k (Study Log). See Britten C D, et al. Enhanced antitumor activity of 6-hydroxymethylacylfulvene in combination with irinotecan and 5-fluorouracil in the HT29 human colon tumor xenograft model. Cancer Res 59:1049-1053, 1999. […] Body weights were recorded when the mice were randomized and were taken twice weekly thereafter in conjunction with tumor measurements, on each of Days 1, 4, 8, 11, 15, 18, 22, 26, 30, 33, and 36.
(§3) The study was terminated when the vehicle control reached an endpoint of 1500 mg, on Day 36.
Mean tumor growth inhibition (TGI) was calculated utilizing Formula A below (deaths were not included in the TGI calculations).
All statistical analyses in the xenograft study were performed with GraphPad Prism® v4 software.

[2] = Body weight, deaths and clinical observations in the BxPC-3 xenograft study; details: for Starting Weight: baseline body weight, female athymic nude mice, BxPC-3 xenograft study
Procedure: as §1, §2, §3

[3] = ANOVA with Tukey's Multiple Comparison Test
[4] = Day 26, group mean, dosing per Table 1
[5] = total deaths on or before Day 26, N = 10 per group

Chain of anti-thrombin III (P01008 33-464, species assumed): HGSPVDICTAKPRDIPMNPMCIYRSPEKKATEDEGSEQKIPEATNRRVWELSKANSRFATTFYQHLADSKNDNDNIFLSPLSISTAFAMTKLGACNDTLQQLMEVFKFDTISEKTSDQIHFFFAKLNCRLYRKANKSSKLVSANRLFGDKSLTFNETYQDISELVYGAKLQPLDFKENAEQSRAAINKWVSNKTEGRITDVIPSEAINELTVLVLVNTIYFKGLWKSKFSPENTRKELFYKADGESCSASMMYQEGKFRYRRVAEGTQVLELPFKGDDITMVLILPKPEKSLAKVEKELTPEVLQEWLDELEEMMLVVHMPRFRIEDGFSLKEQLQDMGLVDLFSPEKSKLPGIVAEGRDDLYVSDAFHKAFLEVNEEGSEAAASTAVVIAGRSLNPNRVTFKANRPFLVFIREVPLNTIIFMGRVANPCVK

## heparin
anti-thrombin III
  Kd: 1.56 µM
  Kd for anti-thrombin III: 22 mg/L

## Nc1ccn([C@@H]2O[C@H](CO)[C@@H](O)C2(F)F)c(=O)n1 [Gemcitabine]
[1]; [3]
  Difference in tumor weight on Day 26 compared to vehicle control: No significant difference
  Difference in tumor weight on Day 36 compared to vehicle control: No significant difference
[1]; Day 1 (randomization), group mean, dosing per Table 1
  Mean tumor weight, Day 1: 124.3 mg
[1]; Day 1 (randomization), group median, dosing per Table 1
  Median tumor weight, Day 1: 121.1 mg
[1]; Day 1 (randomization), individual mouse, dosing per Table 1 (ODSH 24, oxaliplatin 10, gemcitabine 80, nab-paclitaxel 15 mg/kg)
  Tumor weight, individual mouse, Day 1: 132 mg and 139 mg and 126 mg and 104 mg and 107 mg and 111 mg and 116 mg and 166 mg and 146 mg and 96 mg
[1]; Day 4, group mean, dosing per Table 1
  Mean tumor weight, Day 4: 152.5 mg
[1]; Day 4, group median, dosing per Table 1
  Median tumor weight, Day 4: 140.2 mg
[1]; Day 4, individual mouse, dosing per Table 1
  Tumor weight, individual mouse, Day 4: 189 mg and 214 mg and 126 mg and 122 mg and 131 mg and 133 mg and 146 mg and 176 mg and 155 mg and 135 mg
[1]; Day 8, group mean, dosing per Table 1
  Mean tumor weight, Day 8: 162.2 mg
[1]; Day 8, group median, dosing per Table 1
  Median tumor weight, Day 8: 147.4 mg
[1]; Day 8, individual mouse, dosing per Table 1
  Tumor weight, individual mouse, Day 8: 193 mg and 282 mg and 129 mg and 130 mg and 125 mg and 161 mg and 175 mg and 180 mg and 134 mg
[1]; Day 11, group mean, dosing per Table 1
  Mean tumor weight, Day 11: 198.2 mg
[1]; Day 11, group median, dosing per Table 1
  Median tumor weight, Day 11: 191.0 mg
[1]; Day 11, individual mouse, dosing per Table 1
  Tumor weight, individual mouse, Day 11: 235 mg and 328 mg and 146 mg and 145 mg and 119 mg and 150 mg and 202 mg and 242 mg and 234 mg and 180 mg
[1]; Day 15, group mean, dosing per Table 1
  Mean tumor weight, Day 15: 263.8 mg
[1]; Day 15, group median, dosing per Table 1
  Median tumor weight, Day 15: 259.2 mg
[1]; Day 15, individual mouse, dosing per Table 1
  Tumor weight, individual mouse, Day 15: 319 mg and 375 mg and 211 mg and 218 mg and 181 mg and 228 mg and 245 mg and 288 mg and 300 mg and 274 mg
[1]; Day 18, group mean, dosing per Table 1
  Mean tumor weight, Day 18: 332.1 mg
[1]; Day 18, group median, dosing per Table 1
  Median tumor weight, Day 18: 340.1 mg
[1]; Day 18, individual mouse, dosing per Table 1
  Tumor weight, individual mouse, Day 18: 413 mg and 379 mg and 258 mg and 267 mg and 224 mg and 269 mg and 441 mg and 376 mg and 389 mg and 304 mg
[1]; Day 22, group mean, dosing per Table 1
  Mean tumor weight, Day 22: 459.4 mg
[1]; Day 22, group median, dosing per Table 1
  Median tumor weight, Day 22: 451.9 mg
[1]; Day 22, individual mouse, dosing per Table 1
  Tumor weight, individual mouse, Day 22: 621 mg and 514 mg and 372 mg and 400 mg and 350 mg and 332 mg and 592 mg and 509 mg and 500 mg and 404 mg
[1]; [4]
  Mean tumor weight, Day 26: 594.7 mg
[1]; Day 26, group median, dosing per Table 1
  Median tumor weight, Day 26: 605.8 mg
[1]; Day 26, individual mouse, dosing per Table 1
  Tumor weight, individual mouse, Day 26: 797 mg and 739 mg and 468 mg and 534 mg and 431 mg and 389 mg and 730 mg and 628 mg and 647 mg and 583 mg
[1]; Day 26
  Day 26 Tumor Weight: 594.7 ± 43.8 mg
[1]; Day 30, group mean of surviving mice, dosing per Table 1
  Mean tumor weight, Day 30: 874.3 mg
[1]; Day 30, group median, dosing per Table 1
  Median tumor weight, Day 30: 858.0 mg
[1]; Day 30, individual mouse, dosing per Table 1
  Tumor weight, individual mouse, Day 30: 1,121 mg and 1,008 mg and 674 mg and 860 mg and 667 mg and 589 mg and 1,150 mg and 856 mg and 992 mg and 826 mg
[1]; Day 33, group mean of surviving mice, dosing per Table 1
  Mean tumor weight, Day 33: 1,044.2 mg
[1]; Day 33, group median, dosing per Table 1
  Median tumor weight, Day 33: 1,033.3 mg
[1]; Day 33, individual mouse, dosing per Table 1
  Tumor weight, individual mouse, Day 33: 1,367 mg and 1,132 mg and 878 mg and 1,036 mg and 936 mg and 624 mg and 1,275 mg and 1,030 mg and 1,158 mg and 1,008 mg
[1]; Day 36, treatment administered until Day 35
  Day 36 Tumor Weight: 1288.8 ± 74.3 mg
[1]; Day 36, group median, dosing per Table 1
  Median tumor weight, Day 36: 1,306.7 mg
[1]; Day 36, individual mouse, dosing per Table 1
  Tumor weight, individual mouse, Day 36: 1,573 mg and 1,368 mg and 963 mg and 1,347 mg and 1,106 mg and 923 mg and 1,596 mg and 1,482 mg and 1,267 mg and 1,265 mg
[1]; Day 36 vs Day 1, relative to vehicle control (Group 1), deaths not included
  Day 36 % TGI: 16.8%
[2]
  Day 1 Average Weight: 22.48 g
  Day 11 Average Weight: 20.52 g
  Day 15 Average Weight: 21.70 g
  Starting Weight: 22.48 g
[2]; Day 4
  Day 4 Average Weight: 21.76 g
[2]; Day 8
  Day 8 Average Weight: 20.91 g
[2]; Day 18
  Day 18 Average Weight: 23.15 g
[2]; Day 22, vs starting weight
  Day 22 % Weight Loss or Gain: 8.59%
[2]; Table 13 Day 26
  Day 26 Average Weight: 24.21 g
[2]; Table 13 Day 26, vs starting weight
  Day 26 % Weight Loss or Gain: 7.70%
[2]; body weight of mice
  Maximum weight loss: 8.7%
[2]; mouse, in vivo
  Day 4 % Weight Loss or Gain: −3.20%
  Day 8 % Weight Loss or Gain: −6.98%
  Day 11 % Weight Loss or Gain: −8.72%
  Day 15 % Weight Loss or Gain: −3.47%
  Day 18 % Weight Loss or Gain: 2.98%
  Day 22 % Weight Loss or Gain: 7.74%
  Day 22 Average Weight: 24.22 g
  Day 26 % Weight Loss or Gain: 7.96%
  Day 26 Average Weight: 24.27 g
  Day 30 % Weight Loss or Gain: 7.61%
  Day by which the mice recovered their weight: ≤ 18 days
  Day on which maximum weight loss was reached: 11 days
[2]; [5]
  Deaths: 0
[2]; total deaths on or before Day 36, n = 10 per group
  Deaths: 0

## O=C1[O][Pt]2([NH][C@@H]3CCCC[C@H]3[NH]2)[O]C1=O [Oxaliplatin]
[1]; [3]
  Difference in tumor weight on Day 26 compared to vehicle control: No significant difference
[1]; [4]
  Mean tumor weight, Day 26: 635.0 mg
[1]; Day 26
  Day 26 Tumor Weight: 635.0 ± 52.3 mg
[1]; Day 26 vs Day 1, relative to vehicle control (Group 1), deaths not included
  Day 26 % TGI: 8.0% and 8.0 (10/10) %
[2]
  Day 1 Average Weight: 20.82 g
  Day 11 Average Weight: 20.12 g
  Day 15 Average Weight: 20.81 g
  Starting Weight: 20.82 g
[2]; Day 4, vs starting weight
  Day 4 % Weight Loss or Gain: −2.02%
[2]; Day 8, vs starting weight
  Day 8 % Weight Loss or Gain: −0.82%
[2]; Day 15, vs starting weight
  Day 15 % Weight Loss or Gain: −0.05%
[2]; Day 18, vs starting weight
  Day 18 % Weight Loss or Gain: −1.78%
[2]; mouse, in vivo
  Day bruising of the tails was first observed: 11 days
[2]; of ten mice
  Mice demonstrating bruising on the tails or abdomen (site of injection): One mouse
[2]; [5]
  Deaths: 0
